Measured values published in patent publication US20160120854A1, “PHARMACEUTICAL COMPOSITIONS” (BAYER PHARMA AKTIENGESELl SCHAFT, priority 2013, published 2016).
≈ marks a conversion by molar mass, not a printed value.

What was measured:
Format in all cases: physicochemical
[1] = Solubility in PEG400 based vehicles
[2] = Nine months stability study in PEG400 based LSF; conditions: nine months at 25 and 40° C.
[3] = Stability in PEG6000 melt; conditions: 20% drug load, minimally two months, room temperature
Experimental: Nine parts of PEG6000 were melted in an aluminium cup (70° to 90° C.). One part of (2R)-2-(4-fluorophenyl)-N-[4-(2-{[2-methoxy-4-(methylsulfonyl)phenyl]-amino}[1,2,4]triazolo[1,5-a]pyridin-6-yl)phenyl]propanamide was added to the PEG 6000 melt. The mixture was stirred with a glass stick at approximately 90° C. After complete dissolution of (2R)-2-(4-fluorophenyl)-N-[4-(2-{[2-methoxy-4-(methylsulfonyl)phenyl]amino}[1,2,4]triazolo[1,5-a]pyridin-6-yl)phenyl]propanamide, the melt was cooled down by embedding the cup in a ice-water/NaCl mixture for several minutes. The solidified melt was pestled. (2R)-2-(4-fluorophenyl)-N-[4-(2-{[2-methoxy-4-(methylsulfonyl)phenyl]-amino}[1,2,4]triazolo[1,5-a]pyridin-6-yl)phenyl]propanamide is stable in PEG6000 melt with 20% drug load for minimally two months at room temperature.

COc1cc(S(C)(=O)=O)ccc1Nc1nc2ccc(-c3ccc(NC(=O)[C@H](C)c4ccc(F)cc4)cc3)cn2n1 [compound A, (2R)-2-(4-fluorophenyl)-N-[4-(2-{[2-methoxy-4-(methylsulfonyl)phenyl]-amino}[1,2,4]triazolo[1,5-a]pyridin-6-yl)phenyl]propanamide]
solubility ([1]; aqueous with cosolvent or surfactant or cyclodextrin, in PEG400/PVP/water 8:1:1): ~25 mg/mL (≈ 44.7 mM) | solubility ([1]; organic solvent or mixture, in PEG400/PVP 8:2): ~25 mg/mL (≈ 44.7 mM) | solubility ([1]; organic solvent or mixture, in PEG400 based LSF (PEG400/Tween 80/L-Menthol 97:2, 5:0, 5)): ~25 mg/mL (≈ 44.7 mM) | stability in PEG400 based LSF [2]: no significant time dependant instability | stability in PEG6000 melt [3]: stable
